Laboratory results as given in patent publication US20240228572A1 (i2o Therapeutics, Inc., priority 2020, published 2024).
*1 amine or outer side, *2 acyl side, *3 side chain or, on linkers, in order; H or OH if unused. Where a SMILES comes first, the peptide text is derived from it. Side-chain parts run from the residue outwards. [ ]: non-standard residue; d: D form. The star is where a group is joined. C20 diacid = O=C(O)CCCCCCCCCCCCCCCCCCC(=O)*; γGlu = O=C(O)[C@H](CCC(=O)[*:2])N[*:1]; AEEA = NCCOCCOCC(=O)O; Aib = CC(C)(N)C(=O)O

Columns and labels:
rat GCGR = molecular target: T1, rat GCGR (Rattus norvegicus, UniProt P30082); experiment: cAMP accumulation assay, CHO-K1 cells expressing rat GCGR; format: cell-based
T1 construct: A cDNA fragment encoding the full-length open reading frame of the rat GCGR; expressed in transfected cells; host or cells: CHO-K1, pcDNA3.1+, Lipofectamine 2000
T1 sequence (P30082 27-485): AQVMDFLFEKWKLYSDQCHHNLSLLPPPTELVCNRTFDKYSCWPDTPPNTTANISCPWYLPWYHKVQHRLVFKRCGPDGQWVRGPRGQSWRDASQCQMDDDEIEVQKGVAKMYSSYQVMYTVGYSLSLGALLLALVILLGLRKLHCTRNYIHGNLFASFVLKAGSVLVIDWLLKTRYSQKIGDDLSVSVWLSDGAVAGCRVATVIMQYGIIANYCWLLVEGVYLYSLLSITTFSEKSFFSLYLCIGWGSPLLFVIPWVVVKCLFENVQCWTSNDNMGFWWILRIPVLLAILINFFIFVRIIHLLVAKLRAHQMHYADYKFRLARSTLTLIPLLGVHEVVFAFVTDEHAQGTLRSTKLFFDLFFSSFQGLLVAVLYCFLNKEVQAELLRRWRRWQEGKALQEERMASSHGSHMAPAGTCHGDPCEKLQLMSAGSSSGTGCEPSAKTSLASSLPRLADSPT
From the text: In the presence of the non-specific cAMP/cGMP phosphodiesterase inhibitor, 3-isobutyl-1-methylxanthine (IBMX), accumulating cAMP can be measured in vitro using common detection methods. Thus, it is possible to estimate an in vitro potency (pEC50) for peptides activating each of these receptors using fit dose-response curves for cAMP accumulation.
A cDNA fragment encoding the full-length open reading frame of the cynomolgus monkey GLP-1R (Genebank accession #XM_028847603 was cloned into pcDNA3.1+ for expression in CHO-K1 cells. A cDNA fragment encoding the full-length open reading frame of the human GCGR (Genebank accession #NM_000160 was cloned into pcDNA3.1+ for expression in CHO-K1 cells. A cDNA fragment encoding the full-length open reading frame of the rat GCGR (Genebank accession #NM_12091 was cloned into pcDNA3.1+ for expression in CHO-K1 cells. A cDNA fragment encoding the full-length open reading frame of the cynomolgus monkey GCGR (Genebank accession #XM_005585255 was cloned into pcDNA3.1+ for expression in CHO-K1 cells. […]
Peptides were serially diluted 4-fold in assay buffer to final concentrations ranging from 1×10^−9 M to 9.5×10^−16 M. Two assay controls consisting of 50 mcM forskolin (cAMP system maximum) or assay buffer only (cAMP system minimum) were also prepared. […] Plates were read on an Envision fluorescent plate reader (PerkinElmer). […]

[1] = Stability in subcutaneous (SC) tissue homogenates, monkey; format: in vitro ADME; settings: subcutaneous (SC) tissue homogenate, pH 7.4, read-out: (H)SC tissue stability t½ (converted)
Experimental: In vitro incubations in subcutaneous (SC) tissue homogenates were used to characterize the ability of peptides to resist pre-systemic degradation by proteases and peptidases after SC administration. In vivo nonclinical studies have shown that peptidase activity in the SC space can limit the bioavailability of a peptide after SC administration. Peptides with high SC bioavailability are stable in this assay, while peptides with low SC bioavailability are unstable in this assay.
Human SC tissue was homogenized in cold 25 mM HEPES buffer (pH 7.4, 10-fold volume based on sample weight), and then filtered through a double layer of cheesecloth. The filtrates were aliquoted, flash frozen on a methanol/dry ice bath and stored at −80° C. The protein concentration of each pooled batch was determined using the BCA protein assay. Thawed stocks of human SC tissue homogenates were diluted to 1.0 mg protein/mL in 25 mM HEPES buffer (pH 7.4) and aliquoted into a 96-well plate. The diluted SC homogenates were pre-warmed for 10 minutes at 37° C. Reactions were initiated by the addition of test peptide (10 mcM final concentration) also dissolved in 25 mM HEPES buffer (pH 7.4). Reactions were maintained at 37° C. in a shaking water bath. […] Samples were analyzed by UPLC-MS/MS.

hGIPR = molecular target: T2, hGIPR (Homo sapiens, UniProt P48546); experiment: cAMP accumulation assay, hGIPR; format: cell-based
T2 sequence (P48546 22-466): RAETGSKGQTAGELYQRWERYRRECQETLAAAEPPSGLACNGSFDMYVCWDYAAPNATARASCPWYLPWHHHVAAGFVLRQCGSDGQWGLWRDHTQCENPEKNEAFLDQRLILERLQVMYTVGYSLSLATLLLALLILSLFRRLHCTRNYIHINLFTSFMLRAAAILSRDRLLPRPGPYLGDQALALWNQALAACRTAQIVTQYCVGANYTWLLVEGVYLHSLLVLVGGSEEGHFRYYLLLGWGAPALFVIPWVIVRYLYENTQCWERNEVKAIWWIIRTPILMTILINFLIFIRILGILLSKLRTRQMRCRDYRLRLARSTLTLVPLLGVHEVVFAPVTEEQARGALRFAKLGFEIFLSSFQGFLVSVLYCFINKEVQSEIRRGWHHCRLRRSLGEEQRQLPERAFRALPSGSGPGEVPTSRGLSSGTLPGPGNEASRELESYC
Experimental: On day 1, CHO-K1 cells were plated at 1.5 million cells per T75 flask in 90% F12-K media supplemented with 10% FBS. On day 3 cells were transfected with 40 mcg of each expression plasmid using Lipofectamine 2000 transfection reagent. On day 5, cells were dispensed at 1000 cells per well in white 384-well OptiPlates in 5 mcL of assay buffer consisting of 1×HBSS, 5 mM HEPES, 0.5 mM IBMX, and 0.1% casein.
Peptides were serially diluted 4-fold in assay buffer to final concentrations ranging from 1×10^−9 M to 9.5×10^−16 M. Two assay controls consisting of 50 mcM forskolin (cAMP system maximum) or assay buffer only (cAMP system minimum) were also prepared. Five microliters of each peptide-concentration, or assay control, was added to triplicate wells and incubated for thirty minutes at room temperature. […] Plates were read on an Envision fluorescent plate reader (PerkinElmer).
Test values were first normalized to the system maximum and system minimum averaged values in Excel using the formula: (test value−system min average)/(system max average -system min average)*100. […] Data from up to 3 replicate tests were analyzed for each peptide. […]

[2] = molecular target: T3, human GLP-1 receptor (GLP-1R) (Homo sapiens, UniProt P43220); experiment: cAMP accumulation assay, CHO-K1 cells stably expressing human GLP-1R; format: cell-based
T3 construct: expressed in transfected cells
T3 sequence (P43220 24-463): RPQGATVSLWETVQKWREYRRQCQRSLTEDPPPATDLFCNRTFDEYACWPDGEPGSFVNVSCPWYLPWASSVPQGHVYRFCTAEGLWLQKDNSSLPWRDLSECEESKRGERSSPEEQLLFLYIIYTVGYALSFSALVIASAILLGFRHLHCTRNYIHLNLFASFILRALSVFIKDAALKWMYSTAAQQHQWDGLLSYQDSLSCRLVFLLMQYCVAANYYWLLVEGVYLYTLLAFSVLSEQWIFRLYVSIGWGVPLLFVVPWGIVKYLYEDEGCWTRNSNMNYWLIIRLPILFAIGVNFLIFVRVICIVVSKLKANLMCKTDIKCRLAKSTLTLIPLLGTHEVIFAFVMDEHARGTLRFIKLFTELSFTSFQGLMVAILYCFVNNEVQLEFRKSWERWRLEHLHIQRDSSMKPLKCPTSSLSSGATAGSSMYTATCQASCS

serum albumin = serum albumin (Homo sapiens, UniProt P02768); experiment: Fraction unbound (fu) in plasma by surface plasmon resonance, human; format: in vitro ADME; settings: SPR binding to serum albumin
Chain of serum albumin (P02768 25-609): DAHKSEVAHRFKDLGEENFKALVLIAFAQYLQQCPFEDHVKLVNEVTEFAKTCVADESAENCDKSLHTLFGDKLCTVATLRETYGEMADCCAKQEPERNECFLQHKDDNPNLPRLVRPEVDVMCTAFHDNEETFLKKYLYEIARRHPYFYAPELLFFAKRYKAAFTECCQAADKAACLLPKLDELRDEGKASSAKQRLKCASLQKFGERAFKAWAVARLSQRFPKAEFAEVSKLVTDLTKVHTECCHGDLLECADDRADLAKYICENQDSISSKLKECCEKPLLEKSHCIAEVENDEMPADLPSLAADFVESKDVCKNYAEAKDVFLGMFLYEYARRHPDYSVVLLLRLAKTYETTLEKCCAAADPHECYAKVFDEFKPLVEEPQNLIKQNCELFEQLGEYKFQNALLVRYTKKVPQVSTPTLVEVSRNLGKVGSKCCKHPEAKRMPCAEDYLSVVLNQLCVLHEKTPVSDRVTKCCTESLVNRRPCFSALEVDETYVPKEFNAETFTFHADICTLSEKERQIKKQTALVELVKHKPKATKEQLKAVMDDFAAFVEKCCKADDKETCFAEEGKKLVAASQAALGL
Experimental: Conventional methods of measuring plasma protein binding, such as equilibrium dialysis, ultrafiltration and ultracentrifugation, are not reliable with peptides because of their tendency to adsorb to the surface of plastic tubing, dialysis membranes and molecular weight cut-off filters. As a result, the extent to which acylated peptides bind to serum albumin was evaluated using surface plasmon resonance (SPR).

`CC(C)C[C@H](NC(=O)[C@H](Cc1ccc(O)cc1)NC(=O)[C@H](CCCCN)NC(=O)[C@H](CO)NC(=O)[C@H](Cc1ccc(O)cc1)NC(=O)[C@H](CC(=O)O)NC(=O)[C@H](CO)NC(=O)[C@@H](NC(=O)[C@H](Cc1ccccc1)NC(=O)[C@@H](NC(=O)CNC(=O)[C@H](Cc1c[nH]cn1)NC(=O)[C@H](CO)NC(=O)[C@@H](N)Cc1ccc(O)cc1)[C@@H](C)O)[C@@H](C)O)C(=O)N[C@@H](CC(=O)O)C(=O)NC(C)(C)C(=O)N[C@@H](CCCCN)C(=O)N[C@@H](Cc1ccc(O)cc1)C(=O)N[C@@H](C)C(=O)N[C@@H](CCC(N)=O)C(=O)N[C@@H](CCCCNC(=O)CC[C@H](NC(=O)CC[C@H](NC(=O)COCCOCCNC(=O)CCCCCCCCCCCCCCCCCCC(=O)O)C(=O)O)C(=O)O)C(=O)N[C@@H](Cc1ccccc1)C(=O)N[C@H](C(=O)NC(C)(C)C(=O)N[C@@H](Cc1c[nH]c2ccccc12)C(=O)N[C@@H](CC(C)C)C(=O)N[C@@H](CCC(=O)O)C(=O)N[C@@H](CC(=O)O)C(=O)N[C@@H](CCC(=O)O)C(=O)N1CCC[C@H]1C(=O)N[C@@H](CO)C(=O)N[C@@H](CO)C(=O)NCC(=O)N[C@@H](C)C(=O)N1CCC[C@H]1C(=O)N1CCC[C@H]1C(=O)N1CCC[C@H]1C(=O)N[C@@H](CO)C(=O)O)C(C)C` [Compound A6] (H-YSHGTFTSDYSKYLD[Aib]KYAQK([γGlu-γGlu-AEEA-C20 diacid])FV[Aib]WLEDEPSSGAPPPS-OH; N-terminus assumed) gave an EC50 (rat GCGR) of 50.1 pM, a half-life at 10 mcM [1] of 5 h and an EC50 (hGIPR) of over 1000 pM. The EC50 [2] was over 100000 pM, the “Activity (as EC50 values) hGLP1R” value ([2]; human GLP-1 receptor, Table 11) was under 7 and the fraction unbound (serum albumin) was 0.0072.
